From ChEMBL document CHEMBL1201862, “PubChem BioAssay data set” (2004)
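Assay format: 96-well plates, 48-hour exposure. GI50 is the concentration that inhibits growth by half.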 Active and inactive are the calls of the source. No stated cut-off is given here; in the data, active = GI50 up to about 1.1 µM and inactive = higher.

Legend:
Assay in all cases: growth of human tumour cells (NCI), 48 h
[1] = test system: LXFL 529
[2] = test system: K562
[3] = test system: CAKI-1
[4] = test system: NCI-H522
[5] = test system: XF498
[6] = test system: DMS-114
[7] = test system: SF-295
[8] = test system: KM-20L2
[9] = test system: RPMI-8226
[10] = test system: NCI-H460
[11] = test system: LOX IMVI
[12] = test system: OVCAR-4
[13] = test system: KM12
[14] = test system: UACC-257
[15] = test system: 786-0
[16] = test system: MCF7
[17] = test system: DU-145
[18] = test system: MDA-MB-435
[19] = test system: MDA-N
[20] = test system: PC-3

Measured: GI50

CC1=NC(C(=O)O)Cc2c1[nH]c1ccccc21 (stereo not given)
inactive: [1] > 100 µM | [2] > 100 µM | [3] > 100 µM | [4] > 100 µM | [5] > 100 µM | [6] > 100 µM | [7] > 100 µM | [8] > 100 µM | [9] > 100 µM | [10] > 100 µM | [11] > 100 µM

O=C1NC2(CCCCC2)C2CCCCCC12 (stereo not given)
inactive: [1] > 100 µM | [2] > 100 µM | [12] > 100 µM | [13] > 100 µM | [5] > 100 µM | [6] > 100 µM | [7] > 100 µM | [8] > 100 µM | [14] > 100 µM | [10] > 100 µM | [11] > 100 µM

Cn1c2c(c3ccccc31)CCN(CCCCN1CCCCC1)C2=O
inactive: [1] > 100 µM | [2] > 100 µM | [3] > 100 µM | [12] > 100 µM | [15] > 100 µM | [4] > 100 µM | [5] > 100 µM | [7] > 100 µM | [8] > 100 µM | [9] > 100 µM | [14] 62.7 µM | [10] > 100 µM

CC1(C)C2CCC3(OCCO3)C1C(O)C2 (stereo not given)
inactive: [1] > 100 µM | [2] > 100 µM | [3] > 100 µM | [12] > 100 µM | [13] > 100 µM | [15] > 100 µM | [4] > 100 µM | [5] > 100 µM | [7] > 100 µM | [8] > 100 µM | [9] > 100 µM | [14] > 100 µM | [10] > 100 µM | [11] > 100 µM

CN(C)CCSc1nccc(-c2ccc(-c3ccnc(SCCN(C)C)n3)s2)n1
inactive: [2] 6.08 µM | [3] 13.5 µM | [12] 4.13 µM | [13] 4.91 µM | [4] 15.9 µM | [5] 15.6 µM | [6] 11.9 µM | [7] 10.7 µM | [8] 7.36 µM | [9] 2.69 µM | [14] 16.7 µM | [16] 4.45 µM | [10] 3.01 µM | [11] 3.42 µM

Cc1cc2c(C(C)C)c(O)c(O)c(/C=N/c3ccccc3)c2c(O)c1-c1c(C)cc2c(C(C)C)c(O)c(O)c(/C=N/c3ccccc3)c2c1O
inactive: [1] > 100 µM | [2] > 100 µM | [3] > 100 µM | [12] > 100 µM | [13] > 100 µM | [4] > 100 µM | [5] > 100 µM | [6] > 100 µM | [7] > 100 µM | [8] > 100 µM | [9] > 100 µM | [10] > 100 µM | [11] > 100 µM

CCOC1=C2N=C(Cc3ccc(F)cc3)NC2C(=O)c2ccccc21 (stereo not given)
inactive: [1] 25.5 µM | [2] 17.9 µM | [13] 27.5 µM | [15] 20.8 µM | [4] 8.67 µM | [5] > 10 µM | [6] 18.5 µM | [8] 40.3 µM | [9] 11.6 µM | [14] 7.91 µM | [10] 12.6 µM | [11] 22.2 µM

COc1nc(N)nc2nc[nH]c12
inactive: [1] > 800 µM | [2] > 500 µM | [3] 162 µM | [12] 479 µM | [13] > 500 µM | [17] 478 µM | [15] 489 µM | [18] > 500 µM | [4] 440 µM | [5] 279 µM | [6] 467 µM | [7] > 500 µM | [19] > 500 µM | [8] > 500 µM | [20] 466 µM | [9] 417 µM | [14] 486 µM | [16] 490 µM | [10] 430 µM | [11] 381 µM

NC1(C(=O)O)CCc2ccc(N(CCCl)CCCl)cc2C1 (stereo not given)
inactive: [2] > 100 µM | [12] > 100 µM | [13] > 100 µM | [4] 26.7 µM | [5] 43.1 µM | [6] 45.9 µM | [7] 29.6 µM | [8] > 100 µM | [9] 84.3 µM | [14] > 100 µM | [16] 33.8 µM | [10] 10.2 µM | [11] 39.7 µM
